Assays:
[1] = MESC: amino group neighboring the amide linkage; cited from earlier work
polyamine transporter [2] = experiment: Inhibition of [14C]spermine uptake in ZR-75-1 cells; type: cell-based, human; conditions: 3μM substrate (Example 11), read-out: Ki, [14C]spermine transport
polyamine transporter [3] = experiment: Inhibition of [3H]spermidine uptake in ZR-75-1 cells; type: cell-based, human
Method: The rate of putrescine and spermidine transport was determined in ZR-75-1 cells incubated in serum-free RPMI 1640 medium as described (Lessard, M., Zhao, C., Singh, S. M. and Poulin, R. 1995. J. Biol. Chem. 270: 1685-1694), using [^3H]putrescine (30 Ci/mol) and [^3H]spermidine (20 Ci/mol), respectively as substrates for a 20 minute-assay period. Spermine uptake was similarly determined, using 1 μM [^14C]spermine (32 Ci/mol) as substrate. Uptake activity was expressed per amount of DNA as fluorometrically determined using 3,4-diaminobenzoic acid (Simard, J., Dauvois, S., Haagensen, D. E., Lėvesque, C., Mėrand, Y. and Labrie, F. 1990. Endocrinology, 126: 3223-3231). For the determination of spermidine uptake activity in CHO-K1 cells, 80% confluent cell monolayers were rinsed twice with PBS and incubated for 20 minutes at 37° C. in 400 μl of buffer A (20 mM Tris-HCl, pH 7.4; 0.42 mM CaCl2; 0.41 mM MgSO4; 103 mM NaCl; 5.7 mM KCl; 1.1 mM D-glucose) containing 5 μM [^3H]spermidine (20 Ci/mol). Cell cultures were then washed twice with 1 ml PBS containing 5.7 mM sym-norspermidine. Cells were then lysed with 200-μl aliquot of 1 N NaOH and incubated for 30 minutes at 60° C. After neutralization with 200 μl of 1 N HCl, radioactivity was determined from a 250-μl of the cell lysate by scintillation counting. Uptake activity was expressed per amount of total cellular protein as determined by the method of Bradford (Bradford, M. M. 1976. Anal. Biochem. 72: 248-254). Non-specific binding of radioactive substrate was similarly determined in parallel for both cell lines after a 15 second-incubation with 400 μl of ice-cold uptake solution.
Kinetic analysis of polyamine transport was performed by determining uptake activity in the presence of a 3 μM [^3H]putrescine or 1 μM [^3H]spermidine plus increasing concentrations of nonradioactive substrate. K[…] Ki and Vmax values were then estimated by Lineweaver-Burke analysis. For competitive inhibitors, Ki values were also estimated by measuring uptake activity in the presence of logarithmically increasing concentrations of antagonist, and using the Cheng-Prusoff equation (Cheng, Y.-C. and Prusoff, W. H. 1973. Biochem. Pharmacol. 22: 3099-3108) by iterative curve fitting for a sigmoidal curve. For mixed competitive/noncompetitive inhibition, two methods were used to calculate kinetic constants. First, the equation [drawing 2] where v, s, and i are the transport velocity, substrate concentration and inhibitor concentration respectively, was used to calculate the inhibition constants for inhibitor/carrier complex formation (Ki) and carrier/inhibitor/substrate complex formation (Ki′) (Dixon, M. and Webb, E. C. 1976. Enzymes, 3rd Ed., Academic Press, San Diego, Calif.). […]
In order to evaluate the effectiveness of dimeric triamines as polyamine transport inhibitors, we synthesized N,N′-bis(3-aminopropyl),N,N′-bis(4-aminobutyl)cystamine or BABAC (structure 1, FIG. 25; FIG. 31), and its thiol form N-(3-aminopropyl),N-(4-aminobutyl)cysteamine or AAC (FIG. 31) according to Scheme 4 described above (FIG. 30), using spermidine as a precursor polyamine. The ability of BABAC and AAC to inhibit the intracellular uptake of radio-labeled putrescine and spermidine in the ZR-75-1 human breast cancer cell line was then determined according to standard published procedures (Lessard, et al. and Poulin, et al.) Briefly, ZR-75-1 cells were grown for four days in twenty-four well plates in RPMI 1640 medium supplemented with 10% fetal bovine serum.

[4] = Stability in buffered aqueous solution; type: physicochemical; conditions: buffered at pH=7.0
ZR-75-1 cells = experiment: Time course of intracellular [3H]spermidine accumulation in presence of transport antagonists; type: cell-based, human; conditions: 200 μM DESC (40-fold excess), 5 μM [3H]spermidine, after 6 hours
Method: The time course of intracellular accumulation of spermidine in the presence of transport antagonists was determined by incubating ZR-75-1 cells in 24-well plates with DESC (50 or 200 μM) or MESC (200 μM) in dissolved in MEZR medium containing 5 μM [^3H]spermidine in the presence or absence of cycloheximide (CHX, 200 μM), and harvesting at the indicated times for the determination of intracellular radioactive contents, as described above for polyamine uptake assays.

[5] = Stability in biological media (cell-free, HPLC); type: physicochemical; conditions: IMEM, 48 hours, 37° C.
Method: DESC stability was tested by incubating the compound dissolved (at 50 μM) in PBS or in IMEM medium containing 10% (v/v) fetal bovine serum plus or minus 1 mM aminoguanidine in a humid 5% CO2 atmosphere at 37° C. and in the absence of cells. At indicated times, trichloroacetic acid was added to aliquots of this solution to a final concentration 10% (w/v) and the samples directly analyzed by HPLC as above.
The inability of DESC to block the biological effect of exogenous spermidine, even when present at large molar excesses, might have been caused by its degradation in growth media. To assess this hypothesis, DESC solutions (20 μM) made in PBS or in sterile IMEM medium enriched with 10% (v/v) FBS were incubated for 20 minutes or 48 hours under cell-free conditions at 37° C. in a humid 5% CO2 atmosphere, and the polyamine analog was then analyzed by ion-pair reversed-phase HPLC. After 48 hours, degradation of DESC to two new amine-containing derivatives occurred in IMEM (FIG. 9A, B) but not in PBS (FIG. 9C), as evidenced by the appearance of a major (compound 1) and minor (compound 2) peaks of o-phthaldialdehyde-reactive material eluting earlier than DESC. […] After 48 hours, i.e. the interval at which freshly made DESC-containing media were added to cell cultures in growth experiments, 40% of the DESC originally present had been decomposed by IMEM. […]

Stability in aqueous solutions [4]	DESC originally present decomposed [5] [%]	Compound	pKa of secondary amino group of the spermine head [1]	Ki (polyamine transporter [2]) [µM]	Ki (polyamine transporter [3]; FIG. 32, 20 μM and 3 μM substrate, respectively, read-out: Apparent Ki, spermidine uptake) [µM]	Ki (polyamine transporter [3]; this work, read-out: Ki, spermidine transport) [µM]	Decrease of net spermidine accumulation (ZR-75-1 cells) [%]
		NCCCNCCCC(NCCCN)C(=O)NCCS (stereo not shown) [MESC, N-(2-mercaptoethyl)spermine-5-carboxamide]	5.5				
stable for months	40	NCCCNCCCC(NCCCN)C(=O)NCCSSCCNC(=O)C(CCCNCCCN)NCCCN (stereo not shown) [DESC, 2,2′-dithiobis(N-ethyl-spermine-5-carboxamide)]		17	5.6	2.7 ± 1.1	50

Source: US6949679B1, “Polyamine transport inhibitors” (Universite Laval, priority 1998, dated 2005)
